# US20240041840A1 (Areteia Therapeutics, Inc., priority 2020, published 2024)
# Read-outs that look alike come from different tables or passages of the source.
# How the values were obtained:
# blood eosinophils = conditions: 150 mg twice daily, after 6 months, open label, 16 subjects with eosinophilic chronic rhinosinusitis with nasal polyps
# Excerpt: The co-primary endpoints were change in AEC and change in total polyp score (TPS) from baseline to Month 6, with additional clinical and histologic endpoints assessed.
# [1] = tested on: subjects with eosinophilic asthma
# Procedure: Pulmonary function is measured by performing a spirometry, which measures forced expiratory volume in is (FEV1), the volume of air moved in the first second of exhalation, this is a well-accepted measure of asthma. Forced vital capacity (FVC) is the total volume of air exhaled during the entire forced expiratory volume (FEV) test. The FEV1/FVC ratio is a calculated measure that may provide a more specific measure of bronchoconstriction, independent of processes such as air trapping. Pulmonary function testing can be tested pre-bronchodilator (after waiting a sufficient time so that all bronchodilator medications have cleared) or post-bronchodilator, typically 15-30 minutes after inhaling a short-acting bronchodilator, such as albuterol. Bronchodilator reversibility (BDR) is calculated and assessed by analyzing FEV1 pre- and post-bronchodilator, and calculating the change both as absolute (ml) and percentage change.
# Evaluation of Efficacy: Blood eosinophil count, changes in pulmonary function (FEV1), Asthma Control Questionnaire (ACQ-6), Asthma Control Questionnaire (ACQ-7), Asthma Quality of Life Questionnaire (AQLQ), exhaled nitric oxide, pharyngeal and nasal eosinophil peroxidase were collected periodically during the study.
# To control the alpha level for testing 3 dose groups versus placebo for the primary endpoint and for testing FEV1, a closed hierarchical testing procedure was used in the following order: 1. First, the 300 mg/day dose group was tested versus placebo for change in blood absolute eosinophil count, and if this reached the <0.05 level then, 2. the 150 mg/day dose group was tested versus placebo at the 0.05 level for change in blood absolute eosinophil count, and if this reached the <0.05 level then, 3. the pooled 150 and 300 mg/day dose groups were tested versus placebo at the 0.05 level for change in FEV1 at Week 12, then 4. the 75 mg/day dose group was tested versus placebo at the 0.05 level for change in blood absolute eosinophil count, and if this reached the <0.05 level.
# [2] = 75 mg/day, Table 6D, timepoint printed as Analysis Baseline*
# [3] = 75 mg/day, Table 6D, timepoint printed as Week 4
# [4] = 150 mg/day, Table 6D, timepoint printed as Analysis Baseline*
# [5] = 150 mg/day, Table 6D, timepoint printed as Week 4
structure (smiles),measurement,setting,value
"CCCN[C@@H]1CCc2nc(N)sc2C1 [dexpramipexole, (6R)-2-amino-4,5,6,7-tetrahydro-6-(propylamino) benzothiazole]",Lowering of the AEC,blood eosinophils,94%
same,"Pre-Bronchodilator FEV1 % change, mean",[1]; [2],12.0%
same,"Pre-Bronchodilator FEV1 % change, median",[1]; [2],10.7%
same,"Pre-Bronchodilator FEV1 change, mean",[1]; [2],0.237 L
same,"Pre-Bronchodilator FEV1 change, median",[1]; [2],0.170 L
same,"Pre-Bronchodilator FEV1 observed, mean",[1]; [2],228 L
same,"Pre-Bronchodilator FEV1 observed, median",[1]; [2],2.24 L
same,"Pre-Bronchodilator FEV1 % change, mean",[1]; [3],9.27%
same,"Pre-Bronchodilator FEV1 % change, median",[1]; [3],5.48%
same,"Pre-Bronchodilator FEV1 change, mean",[1]; [3],0.207 L
same,"Pre-Bronchodilator FEV1 change, median",[1]; [3],0.115 L
same,"Pre-Bronchodilator FEV1 observed, mean",[1]; [3],2.24 L
same,"Pre-Bronchodilator FEV1 observed, median",[1]; [3],2.08 L
same,FEV1 change from Baseline LSM,"[1]; 75 mg/day, Week 4",0.150 L
same,FEV1 difference versus Placebo LSM,"[1]; 75 mg/day, Week 4",0.165 L
same,"Pre-Bronchodilator FEV1 % change, median","[1]; 75 mg/day, Week 4",4.85%
same,"Pre-Bronchodilator FEV1, % change from Baseline, mean","[1]; 75 mg/day, Week 4",6.25%
same,"Pre-Bronchodilator FEV1 change, mean","[1]; 75 mg/day, Week 4",0.130 L
same,"Pre-Bronchodilator FEV1 change, median","[1]; 75 mg/day, Week 4",0.0750 L
same,"Pre-Bronchodilator FEV1 observed, mean","[1]; 75 mg/day, Week 4",2.10 L
same,"Pre-Bronchodilator FEV1 observed, median","[1]; 75 mg/day, Week 4",2.10 L
same,"Pre-Bronchodilator Percent Predicted FEV1 % change, mean","[1]; 75 mg/day, Week 4",62.4%
same,"Pre-Bronchodilator Percent Predicted FEV1 % change, median","[1]; 75 mg/day, Week 4",4.85%
same,"Pre-Bronchodilator Percent Predicted FEV1 change, mean","[1]; 75 mg/day, Week 4",3.59%
same,"Pre-Bronchodilator Percent Predicted FEV1 change, median","[1]; 75 mg/day, Week 4",2.69%
same,"Pre-Bronchodilator Percent Predicted FEV1 observed, mean","[1]; 75 mg/day, Week 4",62.2%
same,"Pre-Bronchodilator Percent Predicted FEV1 observed, median","[1]; 75 mg/day, Week 4",64.4%
same,FEV1 change from Baseline LSM,"[1]; 75 mg/day, Week 8",0.204 L
same,FEV1 difference versus Placebo LSM,"[1]; 75 mg/day, Week 8",0.210 L
same,"Pre-Bronchodilator FEV1, % change from Baseline, mean","[1]; 75 mg/day, Week 8",12.0%
same,FEV1 change from Baseline LSM,"[1]; 75 mg/day, Week 12",0.168 L
same,FEV1 difference versus Placebo LSM,"[1]; 75 mg/day, Week 12",0.121 L
same,"Pre-Bronchodilator FEV1, % change from Baseline, mean","[1]; 75 mg/day, Week 12",9.27%
same,FEV1 change from Baseline LSM,"[1]; 75 mg/day, Week 16 or Week 18",0.295 L
same,FEV1 difference versus Placebo LSM,"[1]; 75 mg/day, Week 16 or Week 18",0.327 L
same,"Pre-Bronchodilator FEV1, % change from Baseline, mean","[1]; 75 mg/day, Week 16 or Week 18",17.6%
same,"ΔFEV1 vs Placebo LSM (SEM), pooled data","[1]; 75 mg/day, Weeks 4, 8, 12, & 16/18 pooled",206 mL
same,"Pre-Bronchodilator FEV1 % change, mean",[1]; [4],7.57%
same,"Pre-Bronchodilator FEV1 % change, median",[1]; [4],3.88%
same,"Pre-Bronchodilator FEV1 change, mean",[1]; [4],0.130 L
same,"Pre-Bronchodilator FEV1 change, median",[1]; [4],0.0900 L
same,"Pre-Bronchodilator FEV1 observed, mean",[1]; [4],2.21 L
same,"Pre-Bronchodilator FEV1 observed, median",[1]; [4],2.22 L
same,"Pre-Bronchodilator FEV1 % change, mean",[1]; [5],3.14%
same,"Pre-Bronchodilator FEV1 % change, median",[1]; [5],−1.72%
same,"Pre-Bronchodilator FEV1 change, mean",[1]; [5],0.0414 L
same,"Pre-Bronchodilator FEV1 change, median",[1]; [5],-0.0400 L
same,"Pre-Bronchodilator FEV1 observed, mean",[1]; [5],2.12 L
same,"Pre-Bronchodilator FEV1 observed, median",[1]; [5],2.11 L
same,FEV1 change from Baseline LSM,"[1]; 150 mg/day, Week 4",0.151 L
same,FEV1 difference versus Placebo LSM,"[1]; 150 mg/day, Week 4",0.166 L
same,"Pre-Bronchodilator FEV1 % change, median","[1]; 150 mg/day, Week 4",4.54%
same,"Pre-Bronchodilator FEV1, % change from Baseline, mean","[1]; 150 mg/day, Week 4",7.31%
same,"Pre-Bronchodilator FEV1 change, mean","[1]; 150 mg/day, Week 4",0.123 L
same,"Pre-Bronchodilator FEV1 change, median","[1]; 150 mg/day, Week 4",0.0800 L
same,"Pre-Bronchodilator FEV1 observed, mean","[1]; 150 mg/day, Week 4",2.15 L
same,"Pre-Bronchodilator FEV1 observed, median","[1]; 150 mg/day, Week 4",2.05 L
same,"Pre-Bronchodilator Percent Predicted FEV1 % change, mean","[1]; 150 mg/day, Week 4",7.31%
same,"Pre-Bronchodilator Percent Predicted FEV1 % change, median","[1]; 150 mg/day, Week 4",4.54%
same,"Pre-Bronchodilator Percent Predicted FEV1 change, mean","[1]; 150 mg/day, Week 4",3.95%
same,"Pre-Bronchodilator Percent Predicted FEV1 change, median","[1]; 150 mg/day, Week 4",2.85%
same,"Pre-Bronchodilator Percent Predicted FEV1 observed, mean","[1]; 150 mg/day, Week 4",67.4%
same,"Pre-Bronchodilator Percent Predicted FEV1 observed, median","[1]; 150 mg/day, Week 4",69.2%
same,FEV1 change from Baseline LSM,"[1]; 150 mg/day, Week 8",0.166 L
same,FEV1 difference versus Placebo LSM,"[1]; 150 mg/day, Week 8",0.173 L
